Measured values taken from patent EP0629633A2, “Dinucleotide analogues, intermediates therefor and oligonucleotides derived therefrom” (CIBA-GEIGY AG, priority 1993, dated 1994).

Legend:
[1] = test system: herpes simplex virus type 1(HSV-1) (strain 17i); assay: Antiviral plaque reduction assay, HSV-1; assay type: cell-based; conditions: Human alphaherpesvirus 1; HSV-1, Vero cells, plaque numbers after 2 or 3 days
Experimental: (§1) Compound 34 is tested for antiviral activity against herpes simplex virus type 1(HSV-1) (strain 17i) and herpes simplex virus type 2(HSV-2) (strain HG52) in vitro. Aqueous solutions of the compounds are prepared at concentrations between 10mM and […]. The solutions are stored at -70°C after preparation and thawed prior to use in the antiviral assays. After thawing, the solutions are diluted to the appropriate concentration in the cell-culture medium without prior filtration.
(§2) In a procedure similar to that described by Tyms etal, J. Antimicrob. Chemother, 8,65-72 (1981), cell monolayers are infected with 20-200 plaque forming units and after virus adsorption the inoculum is replaced by maintenance medium containing different concentrations of the compound under investigation. Virus spread is prevented by the incorporation of 0.5% low gelling temperature agarose. At the end of a set period (2 or 3 days) monolayers are fixed, stained with methylene blue and plaque numbers determined.

[2] = test system: herpes simplex virus type 2(HSV-2) (strain HG52); assay: Antiviral plaque reduction assay, HSV-2; assay type: cell-based; conditions: Human alphaherpesvirus 2; HSV-2, Vero cells, plaque numbers after 2 or 3 days
Experimental: as §1, §2

Cc1cn(C2CC(O)C(CCP(=O)(c3ccccc3)C(O)C3CC(n4cc(C)c(=O)[nH]c4=O)OC3CO[Si](c3ccccc3)(c3ccccc3)C(C)(C)C)O2)c(=O)[nH]c1=O (centres unmarked) [Compound 34]
IC50 [1]: 2.6 µM | IC50 [2]: 3.8 µM
